Laboratory results reported in ChEMBL document CHEMBL1201862, “PubChem BioAssay data set” (2004).
Active and inactive are the calls of the source.

What was measured:
[1] = molecular target: Serine/threonine-protein phosphatase (Homo sapiens, UniProt Q9BPW0); assay: inhibition of protein phosphatase 5 activity – biochemical, fluorescence, dose response (AID 2395)
[2] = molecular target: T1, Sentrin-specific protease 7 (Homo sapiens, UniProt Q9BQF6); assay: inhibition of human SENP7 cleavage activity – biochemical, luminescence, SAR follow-up (AID 504497); format: functional
T1 sequence (Q9BQF6 whole entry): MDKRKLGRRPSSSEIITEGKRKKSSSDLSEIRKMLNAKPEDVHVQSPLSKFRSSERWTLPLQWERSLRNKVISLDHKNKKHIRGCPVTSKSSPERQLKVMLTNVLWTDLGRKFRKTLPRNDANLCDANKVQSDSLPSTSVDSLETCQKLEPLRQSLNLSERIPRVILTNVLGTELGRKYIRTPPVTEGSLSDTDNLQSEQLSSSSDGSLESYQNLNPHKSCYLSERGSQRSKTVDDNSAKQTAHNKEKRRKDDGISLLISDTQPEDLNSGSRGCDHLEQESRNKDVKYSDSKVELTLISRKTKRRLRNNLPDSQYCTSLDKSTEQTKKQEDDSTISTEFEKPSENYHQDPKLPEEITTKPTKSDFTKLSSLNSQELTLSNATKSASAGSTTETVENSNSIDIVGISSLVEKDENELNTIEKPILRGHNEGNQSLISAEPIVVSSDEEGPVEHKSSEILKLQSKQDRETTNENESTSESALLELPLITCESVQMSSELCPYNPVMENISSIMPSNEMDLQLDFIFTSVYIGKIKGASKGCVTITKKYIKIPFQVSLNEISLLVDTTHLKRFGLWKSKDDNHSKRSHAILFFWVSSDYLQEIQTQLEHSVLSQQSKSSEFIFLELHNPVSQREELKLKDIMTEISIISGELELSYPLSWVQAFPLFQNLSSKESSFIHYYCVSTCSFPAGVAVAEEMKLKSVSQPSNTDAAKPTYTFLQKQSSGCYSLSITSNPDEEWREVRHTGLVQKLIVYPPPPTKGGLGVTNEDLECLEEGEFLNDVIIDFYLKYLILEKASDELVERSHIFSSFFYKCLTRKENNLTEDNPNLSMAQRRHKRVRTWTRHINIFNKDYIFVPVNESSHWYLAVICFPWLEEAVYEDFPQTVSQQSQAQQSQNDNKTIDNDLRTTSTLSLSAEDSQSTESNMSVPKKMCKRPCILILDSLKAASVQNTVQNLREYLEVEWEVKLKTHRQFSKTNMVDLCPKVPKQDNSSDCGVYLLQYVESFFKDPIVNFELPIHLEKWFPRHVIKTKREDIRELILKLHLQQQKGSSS

Chain of Serine/threonine-protein phosphatase (Q9BPW0 whole entry): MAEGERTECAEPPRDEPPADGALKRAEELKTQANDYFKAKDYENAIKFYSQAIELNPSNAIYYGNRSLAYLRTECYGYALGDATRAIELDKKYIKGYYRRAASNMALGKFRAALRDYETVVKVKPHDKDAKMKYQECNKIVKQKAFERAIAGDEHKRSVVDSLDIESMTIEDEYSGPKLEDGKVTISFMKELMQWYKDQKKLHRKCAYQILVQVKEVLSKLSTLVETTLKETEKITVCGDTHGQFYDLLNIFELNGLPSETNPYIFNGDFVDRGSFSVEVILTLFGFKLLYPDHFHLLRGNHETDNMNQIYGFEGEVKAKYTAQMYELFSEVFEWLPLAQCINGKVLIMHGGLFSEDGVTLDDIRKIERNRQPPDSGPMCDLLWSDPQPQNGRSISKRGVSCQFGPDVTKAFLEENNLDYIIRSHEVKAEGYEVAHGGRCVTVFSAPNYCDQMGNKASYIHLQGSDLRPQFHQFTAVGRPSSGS

Compound: Oc1cccc(/C=N/Nc2cc(N3CCCC3)nc(N3CCCC3)n2)c1
- IC50 [1]: 5.83 µM (active)
- IC50 [2]: 49.7 µM (active)
